In patent publication US7767665B2, “1,3-benzothiazinone derivatives and use thereof” (Takeda Pharmaceutical Company Limited, priority 2001, dated 2010):
Structures can show the parent of a compound that is named as a salt.

Row | SMILES | melting point
1 | O=c1nc(-c2ccccn2)sc2ccc(OCCCO)cc12 [Example 118, 6-(3-Hydroxypropoxy)-2-(2-pyridyl)-4H-1,3-benzothiazine-4-one] | 196.6 to 197.7 °C
2 | NCCc1ccnc(-c2nc(=O)c3ccccc3s2)c1 (as salt: trifluoroacetic acid salt) [Example 221, 2-[4-(2-Aminoethyl)-2-pyridyl]-4H-1,3-benzothiazine-4-one trifluoroacetic acid salt] | 209 to 210.7 °C
3 | CCOP(=O)(CCc1ccnc(-c2nc(=O)c3ccccc3s2)c1)OCC | 102 to 103.2 °C
4 | C[S+]([O-])c1ccnc(-c2nc(=O)c3ccccc3s2)c1 (centres unmarked) [Example 299, 2-[4-(Methylsulfinyl)-2-pyridyl]-4H-1,3-benzothiazine-4-one] | 205 to 206 °C
5 | O=C(c1ccc2c(=O)nc(-c3ccccn3)sc2c1)N1CCOCC1 [Example 240, 7-(4-Morpholinocarbonyl)-2-(2-pyridyl)-4H-1,3-benzothiazine-4-one] | 217.6 to 218.8 °C
6 | O=c1nc(-c2cccc(CN3CCC(c4ccccc4)CC3)n2)sc2ccccc12 [Example 267, 2-{6-[(4-Phenyl-1-piperidyl)methyl]-2-pyridyl}-4H-1,3-benzo thiazine-4-one] | 207 to 208 °C
7 | CN(CC(=O)O)c1cncc(-c2nc(=O)c3ccccc3s2)n1 [Example 292, {Methyl[6-(4-oxo-1,3-benzothiazin-2-yl)-2-pyrazinyl]amino}acetic acid] | 283 °C (dec.)
8 | O=c1nc(-c2nccs2)sc2ccccc12 [Example 348, 2-(1,3-thiazol-2-yl)-4H-1,3-benzothiazin-4-one] | 229.1 to 229.8 °C
9 | COc1cc2sc(-c3ccccn3)nc(=O)c2cc1OC [Example 14, 6,7-Dimethoxy-2-(2-pyridyl)-4H-1,3-benzothiazine-4-one] | 236.3 to 237.5 °C
10 | CN(C)c1cncc(-c2nc(=O)c3ccccc3s2)n1 [Example 290, 2-[6-(Dimethylamino)-2-pyrazinyl]-4H-1-benzothiazine-4-one] | 248 to 249 °C
11 | O=C(c1ccc2c(=O)nc(-c3ccccn3)sc2c1)N1CCCC1 [Example 238, 2-(2-Pyridyl)-7-(1-pyrrolidinylcarbonyl)-4H-1,3-benzothiazine-4-one] | 173.6 to 174.2 °C
12 | O=c1nc(-c2ccnc(OCc3ccccc3)c2)sc2ccccc12 [Example 69, 2-(2-Benzyloxy-4-pyridyl)-4H-1,3-benzothiazine-4-one] | 116 to 116.5 °C
13 | O=c1nc(-c2ccnc(N3CCN(c4ccc(F)cc4)CC3)c2)sc2ccccc12 [Example 74, 2-{2-[4-(4-Fluorophenyl)-1-piperazinyl]-4-pyridyl}-4H-1,3-benzothiazine-4-one] | 233 to 233.6 °C
14 | O=c1nc(-c2cccc(-c3cccs3)n2)sc2ccccc12 [Example 193, 2-[6-(2-Thienyl)-2-pyridyl]-4H-1,3-benzothiazin-4-one] | 222.2 to 223.4 °C
15 | O=c1nc(-c2ccc(NCc3ccccc3)nc2)sc2ccccc12 [Example 32, 2-[6-(Benzylamino)-3-pyridyl]-4H-1,3-benzothiazine-4-one] | 194.3 to 196.2 °C
16 | CC(C)Oc1ccc(-c2nc(=O)c3ccccc3s2)cn1 [Example 93, 2-[6-Isopropoxy-3-pyridyl]-4H-1,3-benzothiazine-4-one] | 109.7 to 110.4 °C
17 | Cl.O=c1nc(-c2cc(C3CCCN3)ccn2)sc2ccccc12 (centres unmarked) | 219.4 to 221.4 °C
18 | CC(C)(C)OC(=O)/C=C/c1ccnc(-c2nc(=O)c3ccccc3s2)c1 [Example 311, tert-Butyl (E)-3-[2-(4-oxo-4H-1,3-benzothiazin-2-yl)-4-pyridyl]acrylate] | 196 to 196.7 °C
19 | CS(=O)(=O)c1ccnc(-c2nc(=O)c3ccccc3s2)c1 [Example 300, 2-[4-(Methylsulfonyl)-2-pyridyl]-4H-1,3-benzothiazine-4-one] | 300 to 301 °C
20 | O=c1nc(-c2ccc3c(n2)CCCC3)sc2ccccc12 [Example 139, 2-(5,6,7,8-Tetrahydro-2-quinolyl)-4H-1,3-benzothiazine-4-one] | 232.3 to 232.8 °C
21 | CC(C)(C)OC(=O)CCc1ccc(-c2nc(=O)c3ccccc3s2)nc1 [Example 327, tert-Butyl 3-[6-(4-oxo-4H-1,3-benzothiazin-2-yl)-3-pyridyl]propanoate] | 160 to 161 °C
22 | CN(CC(=O)OC(C)(C)C)c1nccc(-c2nc(=O)c3ccccc3s2)n1 [Example 293, tert-Butyl {methyl [6-(4-oxo-4H-1,3-benzothiazin-2-yl)-2-pyrimidinyl]amino}acetate] | 186.5 to 188 °C
23 | Cc1cccnc1-c1nc(=O)c2ccccc2s1 [Example 8, 2-(3-Methyl-2-pyridyl)-4H-1,3-benzothiazine-4-one] | 149.9 to 151.6 °C
24 | Cc1cccc2c(=O)nc(-c3cccc(C(=O)NCCCCCCN)n3)sc12.Cl | 240 °C
25 | O=c1nc(-c2cccc([S+]([O-])Cc3ccccc3)n2)sc2ccccc12 (centres unmarked) [Example 160, 2-(6-Benzylsulfinyl-2-pyridyl)-4H-1,3-benzothiazine-4-one] | 208.5 to 210 °C
26 | CN(C)CCSc1cncc(-c2nc(=O)c3ccccc3s2)n1 [Example 297] | 160.5 °C (dec.)
27 | CCN1CCN(c2ccnc(-c3nc(=O)c4ccccc4s3)c2)C1=O [Example 325, 2-[4-(3-Ethyl-2-oxo-1-imidazolidinyl)-2-pyridyl]-4H-1,3-benzothiazine-4-one] | 211.5 to 213 °C
28 | O=c1nc(-c2cccc(CN3CCN(c4ccc(F)cc4)CC3)n2)sc2ccccc12 [Example 265, 2-(6-{[4-(4-Fluorophenyl)-1-piperazinyl]methyl}-2-pyridyl)-4H-1,3-benzothiazine-4-one] | 156 to 157 °C

Next, values leading:

Row | melting point | SMILES
29 | 265.5 to 266 °C | C[S+]([O-])c1cc(CCC(=O)O)cc(-c2nc(=O)c3ccccc3s2)n1 (centres unmarked) [Example 344, 3-[2-(methylsulfinyl)-6-(4-oxo-4H-1,3-benzothiazin-2-yl)-4-pyridyl]propionic acid]
30 | 151.3 to 151.9 °C | O=c1nc(-c2cccc(CSc3ccccn3)n2)sc2ccccc12 [Example 272, 2-{6-[(2-Pyridylthio)methyl]-2-pyridyl}-4H-1,3-benzothiazine-4-one]
31 | 164.5 to 165.5 °C | O=c1nc(-c2cccc([S+]([O-])CCc3ccccc3)n2)sc2ccccc12 (centres unmarked) [Example 162, 2-[6-(2-Phenylethylsulfinyl)-2-pyridyl]-4H-1,3-benzothiazine-4-one]
32 | 192.5 to 194 °C | O=c1nc(-c2cccc(SCCCc3ccccc3)n2)sc2ccccc12 [Example 164, 2-[6-(3-Phenylpropylthio)-2-pyridyl]-4H-1,3-benzothiazine-4-one]
33 | 206.7 to 207.9 °C | CC(=O)NCCc1cccc(-c2nc(=O)c3ccccc3s2)n1 [Example 226, N-[2-[6-(4-Oxo-4H-1,3-benzothiazin-2-yl)-2-pyrizyl]ethyl]acetamide]
34 | 162 to 163 °C | O=c1nc(-c2cccc(CN3CCCCC3)n2)sc2ccccc12 [Example 266, 2-[6-(1-Piperidinomethyl)-2-pyridyl]-4H-1,3-benzothiazine-4-one]
35 | 158.8 to 159.1 °C | CC(C)(C)OC(=O)C[S+]([O-])c1cccc(-c2nc(=O)c3ccccc3s2)n1 (centres unmarked) [Example 278, tert-Butyl {[6-(4-oxo-4H-1,3-benzothiazin-2-yl)-2-pyridyl]sulfinyl}acetate]
36 | 186.5 to 188 °C | O=C(O)C[S+]([O-])c1cccc(-c2nc(=O)c3ccccc3s2)n1 (centres unmarked) [Example 279, [6-(4-Oxo-4H-1,3-benzothiazin-2-yl)-2-pyridyl]sulfinylacetic acid]
37 | 151.5 to 153 °C | CSCc1cccc(-c2nc(=O)c3ccccc3s2)n1 [Example 167, 2-(6-Methylthiomethyl-2-pyridyl)-4H-1,3-benzothiazine-4-one]
38 | 175.5 to 177.6 °C | CC(C)(C)OC(=O)/C=C/c1cccc(-c2nc(=O)c3ccccc3s2)n1 [Example 147, tert-Butyl (E)-3-[6-(4-oxo-4H-1,3-benzothiazin-2-yl)-2-pyridyl]-2-propenoate]
39 | 176.6 to 176.7 °C | O=C(O)CCOCc1cccc(-c2nc(=O)c3ccccc3s2)n1 [Example 337, 3-[(6-(4-oxo-4H-1,3-benzothiazin-2-yl)-2-pyridyl)methoxy]propionic acid]
40 | 177 to 179 °C | CCCS(=O)(=O)Cc1cccc(-c2nc(=O)c3ccccc3s2)n1 [Example 254, 2-[6-[(n-Propylsulfonyl)methyl]-2-pyridyl]-4H-1,3-benzothiazine-4-one]
41 | 134.8 to 134.9 °C | Cc1ccc2c(=O)nc(-c3cccc(CCC(=O)OC(C)(C)C)n3)sc2c1 [Example 175, tert-Butyl 3-[6-(7-methyl-4-oxo-4H-1,3-benzothiazin-2-yl)-2-pyridyl]propanoate]
42 | 233.2 to 234.7 °C | Cc1cc(CCC(=O)O)cc(-c2nc(=O)c3ccccc3s2)n1 [Example 321, 3-[2-Methyl-6-(4-oxo-4H-1,3-benzothiazin-2-yl)-4-pyridyl]propionic acid]
43 | 283.8 °C (dec.) | N#Cc1nc(-c2nc(=O)c3ccccc3s2)ccc1CCC(=O)O [Example 340, 3-[2-Cyano-6-(4-oxo-4H-1,3-benzothiazin-2-yl)-3-pyridyl]propanoate]
44 | 219.2 to 219.8 °C | O=C(O)CNC(=O)CCc1cccc(-c2nc(=O)c3ccccc3s2)n1 [Example 312, ({3-[6-(4-Oxo-4H-1,3-benzothiazin-2-yl)-2-pyridyl]propanoyl}amino)acetic acid]
45 | 124.5 to 125 °C | CCOC(=O)CSc1cccc(-c2nc(=O)c3ccccc3s2)n1 [Example 277, Ethyl {[6-(4-oxo-4H-1,3-benzothiazin-2-yl)-2-pyridyl]thio}acetate]
46 | 236.3 to 236.5 °C | NC(=O)CCc1cccc(-c2nc(=O)c3ccccc3s2)n1 [Example 330, 3-[6-(4-Oxo-4H-1,3-benzothiazin-2-yl)-2-pyridyl]propanamide]
47 | 224.4 to 224.7 °C | O=C(O)CCc1cccc(-c2nc(=O)c3ccc(Cl)cc3s2)n1 [Example 6, 3-[6-(7-Chloro-4-oxo-4H-1,3-benzothiazin-2-yl)-2-pyridyl]propionic acid]
